Data taken from PMC7958898 (Journal of Medicinal Chemistry, 2021).
Positions count from the first letter of the chain named.

Columns and labels:
[1] = target: T1, hCCR2b (Homo sapiens, UniProt P41597); assay: [3H]-CCR2-RA displacement assay, U2OS-CCR2 membranes; conditions: ratio of apparent Ki to Ki of compound 7
T1 sequence (P41597 1-360 isoform P41597-2): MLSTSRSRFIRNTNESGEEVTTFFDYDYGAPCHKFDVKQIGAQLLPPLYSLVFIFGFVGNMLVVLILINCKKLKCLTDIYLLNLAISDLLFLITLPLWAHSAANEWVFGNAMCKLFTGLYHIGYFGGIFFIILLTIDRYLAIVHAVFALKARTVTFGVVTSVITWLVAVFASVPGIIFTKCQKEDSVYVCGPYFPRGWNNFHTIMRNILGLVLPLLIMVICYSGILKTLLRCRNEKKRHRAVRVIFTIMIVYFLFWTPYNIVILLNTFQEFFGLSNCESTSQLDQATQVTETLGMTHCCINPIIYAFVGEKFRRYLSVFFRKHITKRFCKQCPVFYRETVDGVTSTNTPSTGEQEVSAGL

[2] = Stability under radioligand binding assay conditions; format: physicochemical
[3] = target: T1, hCCR2b; assay: NanoBiT β-arrestin1 recruitment assay in live HEK293t cells; conditions: unwashed control vs [35S]GTPγS binding assay
[4] = target: T2, CCR2 triple mutant C70S/C75S/C232S (Homo sapiens, UniProt P41597, C232S/C70S/C75S); assay: [3H]-CCR2-RA-[R] washout assay, CHO membranes, CCR2 triple mutant; conditions: 160 nM 14, four wash cycles
T2 sequence (P41597 1-360 isoform P41597-2 C70S/C75S/C232S): T1 sequence (P41597 1-360 isoform P41597-2) with C70S, C75S, C232S

| Structure (SMILES) | loss/reduction of affinity compared to compound 7 [1] | time compound remained intact in assay buffer ([2]; 25 μM, 50 mM Tris-HCl pH 7.4, 5 mM MgCl2, 0.1% CHAPS, room temperature, data not shown) | stability at higher concentration and temperature ([2]; 1 mM compound, 37 °C, over 4 h) | higher potency in β-arrestin recruitment than in [35S]GTPγS binding assay [3] | [3H]-CCR2-RA-[R] binding after washout [4] |
| --- | --- | --- | --- | --- | --- |
| O=C(NCCNC(=O)c1ccc(S(=O)(=O)F)cc1)c1ccc(Oc2ccc(Cl)cc2NS(=O)(=O)c2ccc(Cl)c(C(F)(F)F)c2)cc1 [Compound 13, 4-((2-(4-(4-Chloro-2-((4-chloro-3-(trifluoromethyl)phenyl)sulfonamido)phenoxy)benzamido)ethyl)carbamoyl)benzenesulfonyl Fluoride] | 15 fold | – | – | – | – |
| O=C(NCCN=C=S)c1ccc(Oc2ccc(Cl)cc2NS(=O)(=O)c2ccc(Cl)c(C(F)(F)F)c2)cc1 [Compound 11, 4-(4-Chloro-2-((4-chloro-3-(trifluoromethyl)phenyl)sulfonamido)phenoxy)-N-(2-isothiocyanatoethyl)benzamide] | 5 fold | – | – | – | – |
| N#CSCCNC(=O)c1ccc(Oc2ccc(Cl)cc2NS(=O)(=O)c2ccc(Cl)c(C(F)(F)F)c2)cc1 [Compound 14, 4-(4-Chloro-2-((4-chloro-3-(trifluoromethyl)phenyl)sulfonamido)phenoxy)-N-(2-thiocyanatoethyl)benzamide] | – | over 6 h | gradual degradation | 8 fold | recovered to levels comparable to compound 7 |
